Assay results as given in PubChem BioAssay (NCI).
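Where inhibition never reached the appropriate level, the endpoint shown equals the highest concentration tested. Otherwise, values were interpolated linearly from a five-concentration, 48-hour dose response in 96-well plates. GI50 is the concentration that inhibits growth by half. TGI is the concentration that stops growth completely.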

How the values were obtained:
Assay in all cases: inhibition of tumour cell growth, NCI panel, 48 h
BT-549 breast = tested on: BT-549 breast
SK-OV-3 ovarian = tested on: SK-OV-3 ovarian
MOLT-4 leukemia = tested on: MOLT-4 leukemia
IGROV1 ovarian = tested on: IGROV1 ovarian
MALME-3M melanoma = tested on: MALME-3M melanoma
PC-3 prostate = tested on: PC-3 prostate
ACHN renal = tested on: ACHN renal
HS 578T breast = tested on: HS 578T breast
SK-MEL-5 melanoma = tested on: SK-MEL-5 melanoma
OVCAR-4 ovarian = tested on: OVCAR-4 ovarian

SMILES | TGI (BT-549 breast) | TGI (SK-OV-3 ovarian) | TGI (MOLT-4 leukemia) | TGI (IGROV1 ovarian) | TGI (MALME-3M melanoma) | TGI (PC-3 prostate) | TGI (ACHN renal) | TGI (HS 578T breast) | TGI (SK-MEL-5 melanoma) | TGI (OVCAR-4 ovarian) | GI50 (BT-549 breast) | GI50 (SK-OV-3 ovarian) | GI50 (MOLT-4 leukemia) | GI50 (IGROV1 ovarian) | GI50 (MALME-3M melanoma) | GI50 (PC-3 prostate) | GI50 (ACHN renal) | GI50 (HS 578T breast) | GI50 (SK-MEL-5 melanoma) | GI50 (OVCAR-4 ovarian)
CCOC(=O)c1oc2ccc([N+](=O)[O-])c3c2c1CCC3 | > 93 µM | > 46.3 µM | > 100 µM | > 100 µM | > 100 µM | > 100 µM | > 100 µM | > 85 µM | > 100 µM | > 100 µM | – | – | – | – | – | – | – | – | – | –
C/C(=N\N=C(\[Se])N(C)C)c1ccccn1 | 21.4 µM | 10.2 µM | 7.8 µM | 10.1 µM | 9.35 µM | 13.9 µM | 13.2 µM | 40.6 µM | 1.75 µM | 13.9 µM | – | – | – | – | – | – | – | – | – | –
Cc1cc2nc3cc(C)c(N)cc3[n+](-c3ccccc3)c2cc1N | 18.8 µM | > 100 µM | > 100 µM | > 100 µM | 51.1 µM | > 100 µM | > 100 µM | > 100 µM | 5.4 µM | > 100 µM | 2.64 µM | 24.8 µM | 6.5 µM | 12.4 µM | 3.98 µM | 3.63 µM | > 68.2 µM | 10.6 µM | 0.773 µM | 3.57 µM
COc1cc(N2CCN(C(C)C)CC2)ccc1Nc1nc(Nc2cccc(F)c2C(=O)O)c2cc[nH]c2n1 | > 25 µM | > 25 µM | > 25 µM | > 25 µM | > 25 µM | > 25 µM | > 25 µM | > 25 µM | > 25 µM | > 25 µM | > 25 µM | > 25 µM | > 25 µM | > 25 µM | > 25 µM | > 25 µM | > 25 µM | > 25 µM | > 25 µM | > 25 µM
CN1CCN(Cc2ccc(NC(=O)c3cncc(C#Cc4cncc5nccnc45)c3)cc2C(F)(F)F)CC1 | 11.2 µM | 13 µM | 13.2 µM | 7.07 µM | 1.3 µM | 32.2 µM | 6.48 µM | 7.89 µM | 8.63 µM | 12 µM | 5.27 µM | 2.75 µM | 1.89 µM | 1.52 µM | 0.231 µM | 4.73 µM | 1.57 µM | 1.13 µM | 2.61 µM | 1.04 µM
CN(C)CC(C(=O)Cc1ccccc1)c1ccccc1 (stereo not given) | 8.74 µM | 36.2 µM | > 100 µM | 26.4 µM | 3.89 µM | 22.4 µM | 3.53 µM | 9.83 µM | 25.2 µM | 5.87 µM | 3.18 µM | 18.4 µM | 3.02 µM | 11.6 µM | 1.74 µM | 7.53 µM | 1.97 µM | 3.16 µM | 11.6 µM | 2.35 µM
COc1cc2ncnc(Nc3ccc4c(cnn4Cc4ccccc4)c3)c2cc1OC | > 25 µM | > 25 µM | > 25 µM | > 25 µM | > 25 µM | > 25 µM | > 25 µM | > 25 µM | > 25 µM | > 25 µM | 16.5 µM | 0.534 µM | 13.5 µM | 4.83 µM | > 25 µM | > 18.2 µM | 0.642 µM | > 21 µM | > 17.5 µM | > 25 µM
COc1ccc(/C=C2\CN(Cc3cn(CCNc4ccnc5cc(Cl)ccc45)nn3)C/C(=C\c3ccc(OC)c(OC)c3)C2=O)cc1OC | 4.84 µM | 24.1 µM | 40.2 µM | 7.09 µM | 6.19 µM | > 100 µM | 19.9 µM | > 100 µM | 3.75 µM | > 100 µM | 2.16 µM | 4.66 µM | 3.5 µM | 2.67 µM | 2.78 µM | 3.57 µM | 5.25 µM | 6.49 µM | 1.72 µM | 4.07 µM
N=C(N)c1ccc(NCCOCCNc2ccc(C(=N)N)cc2)cc1 | > 100 µM | 51.7 µM | > 100 µM | > 100 µM | 87 µM | > 100 µM | > 100 µM | > 100 µM | 89.4 µM | > 100 µM | 34.9 µM | 7.86 µM | > 100 µM | 60.5 µM | 29.7 µM | 50.7 µM | 36.1 µM | 52.8 µM | 25.5 µM | 34.1 µM
